Measured values: PMC12680756, “Reflectometric-based sensor arrays for the screening of kinase-inhibitor interactions and kinetic determination” (Analytical and Bioanalytical Chemistry, 2025)

Columns and labels:
PKA in the protein mix = experiment: 1-lambda reflectometry inhibitor screening on spotted sensor array, protein mix; assay type: binding, bovine; conditions: for order of binding affinity by color change of the spots (naked eye): protein mix 50 µg/mL, image after association, Fig. 5a; for increase of the average relative signal: protein mix, sensograms Fig. 5c, immobilized inhibitor spot
Description: (§1) • Manual spotting: the inhibitor dissolved in DMSO (1 mg/mL) was dropped to the measurement region on the transducer by pipetting. The immobilization process was as specified above. • Automatic spotting: the inhibitor dissolved in DMSO (1 mg/mL) was dropped to the measurement region on the transducer via the ceramic pin of the spotter. The droplets were dried under ambient conditions, and the process was repeated twice. After drying the last droplet, the transducer was prepared for measurements or stored at 4°C.
(§2) Screening was performed with 1-lambda reflectometry and transducers on which different inhibitors were spotted in the measurement area. The measurement protocols were the same as for the single assays.
One region per row was set as the reference ROI void of inhibitor.

FAK [1] = target: T1, FAK (Homo sapiens, UniProt Q05397); experiment: 1-lambda reflectometry inhibitor screening on spotted sensor array, FAK; assay type: binding; conditions: sensograms Fig. 5c; for order regarding the strength of the association: FAK as kinase sample
Description: as §1, §2

[2] = target: protein mix containing cAMP-dependent protein kinase (PKA) (Bos taurus, UniProt P00517); experiment: 1-lambda reflectometry single assays, protein mix flushed over immobilized inhibitor, kinetic evaluation; conditions: read-out: dissociation rate constant kd
FAK [3] = target: T1, FAK; experiment: Competitive MST assay, labeled STP-FAK complex titrated with another inhibitor; assay type: binding; conditions: labeled STP (40 µM) in complex with FAK (40 nM)
Description: Microscale thermophoresis was performed with the instrument Monolith NT.115, capillaries and MO.Control Software from Nanotemper Technologies, Munich, Germany. For each experiment, 16 capillaries were filled with a sample solution. […] The fluorescence of a specific area of each capillary was measured prior and during the thermophoresis experiment. For a better comparability, the fluorescence intensity obtained during the measurement was normalized to the fluorescence in each capillary recorded prior to the start of the experiment.

T1 sequence (Q05397 410-689, species assumed): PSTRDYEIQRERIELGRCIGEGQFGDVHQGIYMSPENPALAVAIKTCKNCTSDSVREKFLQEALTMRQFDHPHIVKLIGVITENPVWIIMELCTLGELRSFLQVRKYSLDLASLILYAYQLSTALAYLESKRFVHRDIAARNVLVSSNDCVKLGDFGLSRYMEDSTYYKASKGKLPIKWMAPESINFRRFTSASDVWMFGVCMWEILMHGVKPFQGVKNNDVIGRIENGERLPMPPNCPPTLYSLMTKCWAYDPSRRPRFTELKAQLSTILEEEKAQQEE

Row | Structure (SMILES) | order of binding affinity by color change of the spots (naked eye) (PKA in the protein mix) | order regarding the strength of the association (FAK [1]) | koff [2] | increase of the average relative signal (PKA in the protein mix) | increase of the relative signal (FAK [1]; FAK, immobilized inhibitor spot) | shape of dose-response curve in competitive MST (FAK [3])
1 | COc1ccc(-c2cc(N)[nH]n2)cc1Cl [fragment1] | imatinib > fragment2 > fragment1 > STP | STP > imatinib > fasudil > fragment2 > fragment1 | 0.007 s⁻¹ |  |  | 
2 | CN[C@@H]1C[C@H]2O[C@@](C)([C@@H]1OC)n1c3ccccc3c3c4c(c5c6ccccc6n2c5c31)C(=O)NC4 [STP, Staurosporine] | imatinib > fragment2 > fragment1 > STP |  |  |  |  | 
3 | Nc1ncnc(Nc2ccc(F)cc2)n1 [fragment2] | imatinib > fragment2 > fragment1 > STP | STP > imatinib > fasudil > fragment2 > fragment1 |  |  |  | 
4 | Cc1ccc(NC(=O)c2ccc(CN3CCN(C)CC3)cc2)cc1Nc1nccc(-c2cccnc2)n1 [imatinib] | imatinib > fragment2 > fragment1 > STP | STP > imatinib > fasudil > fragment2 > fragment1 |  | 0.84% | 0.13% | 
5 | Cl.Cn1cc(C2=C(c3c4n(c5ccccc35)CCC(CN)C4)C(=O)NC2=O)c2ccccc21 (centres unmarked) [BisX, Bisindolylmaleimide X] |  |  |  |  |  | the slope was inversed compared to the one of the direct assays
6 | O=S(=O)(c1cccc2cnccc12)N1CCCNCC1 [fasudil] | strongest color change | STP > imatinib > fasudil > fragment2 > fragment1 |  | 1.7% |  | 
